Each structure is given as a SMILES string. Like-named read-outs stand apart in the source and are kept apart here.

Among the data in patent US20230295115A1, “SUBSTITUTED ISOQUINOLINYLMETHYL AMIDES, ANALOGUES THEREOF, AND METHODS USING SAME” (priority 2020, published 2023) are EC50 values, retold here.

In the test the test system is HBV rcDNA. Briefly: HepDE19 assay with bDNA quantitation of HBV rcDNA. The format is cell-based, hepatitis B virus (HBV). Put shortly:
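HepDE19 cells were switched to tetracycline-free medium and exposed to compound (0.5% DMSO final) for 7 days at 37° C. rcDNA was then quantified by bDNA with an HBV-specific probe set. In parallel, viability was read as ATP content (CellTiter-Glo) after 4 days on replicate plates.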

Setting [1] is: HepDE19 cells, 7 day incubation, rcDNA measured by Quantigene 2.0 bDNA assay, top concentration 25 μM, read-out: DE-19bDNA EC50.
The mark [2] stands for this setting: Hepatitis B virus, HepDE19, 168 h, read-out: DE-19bDNA EC50 (μM), HepDE19 cells, 7 day incubation, rcDNA measured by Quantigene 2.0 bDNA assay, top concentration 25 μM.

Turning to `CC(c1cn(C)c(=O)c2cc(F)c(F)cc12)N(C)C(=O)c1cc2c(F)cccn2c1` (single isomer, unassigned) [Compound 171, N-(1-(6,7-difluoro-2-methyl-1-oxo-1,2-dihydroisoquinolin-4-yl)ethyl)-8-fluoro-N-methylindolizine-2-carboxamide], under setting [1], the EC50 was 16.4 µM.

For `CC(c1cn(C)c(=O)c2cc(F)c(F)cc12)N(C)C(=O)c1cc2c(F)cccn2c1` (single isomer, unassigned) [Compound 172, N-(1-(6,7-difluoro-2-methyl-1-oxo-1,2-dihydroisoquinolin-4-yl)ethyl)-8-fluoro-N-methylindolizine-2-carboxamide], under setting [1], the EC50 was found to be 0.09 µM.

For the compound `CC(c1cn(C)c(=O)c2cc(F)c(F)cc12)N(C)C(=O)c1cc2cc(F)c(F)cc2[nH]1` (single isomer, unassigned) [Compound 173, N-(1-(6,7-difluoro-2-methyl-1-oxo-1,2-dihydroisoquinolin-4-yl)ethyl)-5,6-difluoro-N-methyl-1H-indole-2-carboxamide], the EC50 under setting [1] worked out at 2.12 µM.

On to `CC(c1cn(C)c(=O)c2cc(F)c(F)cc12)N(C)C(=O)c1cc2cc(F)c(F)cc2[nH]1` (single isomer, unassigned) [Compound 174, N-(1-(6,7-difluoro-2-methyl-1-oxo-1,2-dihydroisoquinolin-4-yl)ethyl)-5,6-difluoro-N-methyl-1H-indole-2-carboxamide], for which the EC50 under setting [1] was 0.05 µM.

Regarding `COc1ncc(C(C)N(C)C(=O)c2ccc(C(F)(F)F)c(F)c2)c2cc(F)c(F)cc12` (single isomer, unassigned) [Compound 175, N-(1-(6,7-Difluoro-1-methoxyisoquinolin-4-yl)ethyl)-3-fluoro-N-methyl-4-(trifluoromethyl)benzamide], the EC50 under setting [1] worked out at 24.3 µM.

As to `COc1ncc(C(C)N(C)C(=O)c2ccc(C(F)(F)F)c(F)c2)c2cc(F)c(F)cc12` (single isomer, unassigned) [Compound 176, N-(1-(6,7-Difluoro-1-methoxyisoquinolin-4-yl)ethyl)-3-fluoro-N-methyl-4-(trifluoromethyl)benzamide], under setting [1], the EC50 worked out at 0.56 µM.

Turning to `COc1ncc(C(C)N(C)C(=O)c2ccc(Br)c(F)c2)c2cc(F)c(F)cc12` (single isomer, unassigned) [Compound 177, 4-Bromo-N-(1-(6,7-difluoro-1-methoxyisoquinolin-4-yl)ethyl)-3-fluoro-N-methylbenzamide], under setting [1], the EC50 was determined as 20.2 µM.

As to `COc1ncc(C(C)N(C)C(=O)c2ccc(Br)c(F)c2)c2cc(F)c(F)cc12` (single isomer, unassigned) [Compound 178, 4-Bromo-N-(1-(6,7-difluoro-1-methoxyisoquinolin-4-yl)ethyl)-3-fluoro-N-methylbenzamide], the EC50 under setting [1] was 0.2 µM.

Regarding `COc1ncc(C(C)N(C)C(=O)c2cc3c(F)cccn3c2)c2cc(F)c(F)cc12` (single isomer, unassigned) [Compound 179, N-(1-(6,7-difluoro-1-methoxyisoquinolin-4-yl)ethyl)-8-fluoro-N-methylindolizine-2-carboxamide], the EC50 under setting [1] came out at 9.38 µM.

`COc1ncc(C(C)N(C)C(=O)c2cc3c(F)cccn3c2)c2cc(F)c(F)cc12` (single isomer, unassigned) [Compound 180, N-(1-(6,7-difluoro-1-methoxyisoquinolin-4-yl)ethyl)-8-fluoro-N-methylindolizine-2-carboxamide]: under setting [1], the EC50 is 0.24 µM.

As to `COc1ncc(C(C)N(C)C(=O)[C@@H]2Cc3ccccc3N2)c2cc(F)c(F)cc12` (single isomer, unassigned) [Compound 181], the EC50 under setting [1] was found to be 0.29 µM.

As to `COc1ncc(C(C)N(C)C(=O)[C@@H]2Cc3ccccc3N2)c2cc(F)c(F)cc12` (single isomer, unassigned) [Compound 182], the EC50 under setting [1] was 24.7 µM.

Take `C[C@H](c1c[nH]c(=O)c2cc(F)c(F)cc12)N(C)C(=O)c1cc2c([nH]1)CCCC2` [Compound 34, (R)-N-(1-(6,7-Difluoro-1-oxo-1,2-dihydroisoquinolin-4-yl)ethyl)-N-methyl-4,5,6,7-tetrahydro-1H-indole-2-carboxamide]: the EC50 under setting [2] was found to be 0.05 µM.

Consider `CC(c1c[nH]c(=O)c2cc(F)c(F)cc12)N(C)C(=O)C1Cc2cc(F)ccc2N1` (stereo not shown) [Compound 61, N-(1-(6,7-Difluoro-1-oxo-1,2-dihydroisoquinolin-4-yl)ethyl)-5-fluoro-N-methylindoline-2-carboxamide], for which the EC50 under setting [1] came to 6.7 µM.

Consider `CC(c1c[nH]c(=O)c2cc(F)c(F)cc12)N(C)C(=O)C1Cc2cc(F)ccc2N1` (stereo not shown) [Compound 62, N-(1-(6,7-Difluoro-1-oxo-1,2-dihydroisoquinolin-4-yl)ethyl)-5-fluoro-N-methylindoline-2-carboxamide], for which the EC50 under setting [1] was 0.19 µM.

As to `CC(c1c[nH]c(=O)c2cc(F)c(F)cc12)N(C)C(=O)C1Cc2cc(F)ccc2N1` (stereo not shown) [Compound 63, N-(1-(6,7-Difluoro-1-oxo-1,2-dihydroisoquinolin-4-yl)ethyl)-5-fluoro-N-methylindoline-2-carboxamide], under setting [1], the EC50 came to 5.2 µM.

As to `CC(c1c[nH]c(=O)c2cc(F)c(F)cc12)N(C)C(=O)C1Cc2cc(F)ccc2N1` (stereo not shown) [Compound 64, N-(1-(6,7-Difluoro-1-oxo-1,2-dihydroisoquinolin-4-yl)ethyl)-5-fluoro-N-methylindoline-2-carboxamide], under setting [1], the EC50 is 0.02 µM.

Turning to `CC(c1c[nH]c(=O)c2c(F)c(F)ccc12)N(C)C(=O)C1Cc2c(F)cc(F)cc2N1` (stereo not shown) [Compound 65, N-(1-(7,8-Difluoro-1-oxo-1,2-dihydroisoquinolin-4-yl)ethyl)-4,6-difluoro-N-methylindoline-2-carboxamide], under setting [1], the EC50 is 11 µM.

Take `CC(c1c[nH]c(=O)c2c(F)c(F)ccc12)N(C)C(=O)C1Cc2c(F)cc(F)cc2N1` (stereo not shown) [Compound 66, N-(1-(7,8-Difluoro-1-oxo-1,2-dihydroisoquinolin-4-yl)ethyl)-4,6-difluoro-N-methylindoline-2-carboxamide]: the EC50 under setting [1] was found to be 0.21 µM.

For the compound `CC(c1c[nH]c(=O)c2c(F)c(F)ccc12)N(C)C(=O)C1Cc2c(F)cc(F)cc2N1` (stereo not shown) [Compound 67, N-(1-(7,8-Difluoro-1-oxo-1,2-dihydroisoquinolin-4-yl)ethyl)-4,6-difluoro-N-methylindoline-2-carboxamide], under setting [1], the EC50 was 3.1 µM.

With `CC(c1c[nH]c(=O)c2c(F)c(F)ccc12)N(C)C(=O)C1Cc2c(F)cc(F)cc2N1` (stereo not shown) [Compound 68, N-(1-(7,8-Difluoro-1-oxo-1,2-dihydroisoquinolin-4-yl)ethyl)-4,6-difluoro-N-methylindoline-2-carboxamide], the EC50 under setting [1] was 0.2 µM.

On to `CC(c1c[nH]c(=O)c2c(F)c(F)ccc12)N(C)C(=O)C1Cc2cc(F)ccc2N1` (stereo not shown) [Compound 73, N-(1-(7,8-Difluoro-1-oxo-1,2-dihydroisoquinolin-4-yl)ethyl)-5-fluoro-N-methylindoline-2-carboxamide], for which, under setting [1], the EC50 turned out to be 10 µM.

In the case of `CC(c1c[nH]c(=O)c2c(F)c(F)ccc12)N(C)C(=O)C1Cc2cc(F)ccc2N1` (stereo not shown) [Compound 74, N-(1-(7,8-Difluoro-1-oxo-1,2-dihydroisoquinolin-4-yl)ethyl)-5-fluoro-N-methylindoline-2-carboxamide], under setting [1], the EC50 was determined as 0.26 µM.

Regarding `CC(c1c[nH]c(=O)c2c(F)c(F)ccc12)N(C)C(=O)C1Cc2cc(F)ccc2N1` (stereo not shown) [Compound 75, N-(1-(7,8-Difluoro-1-oxo-1,2-dihydroisoquinolin-4-yl)ethyl)-5-fluoro-N-methylindoline-2-carboxamide], under setting [1], the EC50 amounted to 0.83 µM.

For the compound `CC(c1c[nH]c(=O)c2c(F)c(F)ccc12)N(C)C(=O)C1Cc2cc(F)ccc2N1` (stereo not shown) [Compound 76, N-(1-(7,8-Difluoro-1-oxo-1,2-dihydroisoquinolin-4-yl)ethyl)-5-fluoro-N-methylindoline-2-carboxamide], the EC50 under setting [1] was found to be 4.4 µM.

As for `C[C@H](c1c[nH]c(=O)c2c(F)c(F)ccc12)N(C)C(=O)c1cccc(=O)[nH]1` [Compound 87, (R)-N-(1-(7,8-Difluoro-1-oxo-1,2-dihydroisoquinolin-4-yl)ethyl)-N-methyl-6-oxo-1,6-dihydropyridine-2-carboxamide], the EC50 under setting [2] is 18 µM.

On to `CC(c1c[nH]c(=O)c2cc(F)c(F)cc12)N(C)C(=O)C1Cc2c(F)cc(F)cc2N1` (stereo not shown) [Compound 98, N-(1-(6,7-Difluoro-1-oxo-1,2-dihydroisoquinolin-4-yl)ethyl)-4,6-difluoro-N-methylindoline-2-carboxamide], for which the EC50 under setting [1] stood at 5.9 µM.

On to `CC(c1c[nH]c(=O)c2cc(F)c(F)cc12)N(C)C(=O)C1Cc2c(F)cc(F)cc2N1` (stereo not shown) [Compound 99, N-(1-(6,7-Difluoro-1-oxo-1,2-dihydroisoquinolin-4-yl)ethyl)-4,6-difluoro-N-methylindoline-2-carboxamide], for which the EC50 under setting [1] was found to be 0.07 µM.

On to `CC(c1c[nH]c(=O)c2cc(F)c(F)cc12)N(C)C(=O)C1Cc2c(F)cc(F)cc2N1` (stereo not shown) [Compound 100, N-(1-(6,7-Difluoro-1-oxo-1,2-dihydroisoquinolin-4-yl)ethyl)-4,6-difluoro-N-methylindoline-2-carboxamide], for which the EC50 under setting [1] is 0.8 µM.

`CC(c1c[nH]c(=O)c2cc(F)c(F)cc12)N(C)C(=O)C1Cc2c(F)cc(F)cc2N1` (stereo not shown) [Compound 101, N-(1-(6,7-Difluoro-1-oxo-1,2-dihydroisoquinolin-4-yl)ethyl)-4,6-difluoro-N-methylindoline-2-carboxamide]: under setting [1], the EC50 was 0.03 µM.

Consider `CC(c1c[nH]c(=O)c2c(F)c(F)ccc12)N(C)C(=O)C1Nc2ccccc2C1(C)C` (stereo not shown) [Compound 104, N-(1-(7,8-Difluoro-1-oxo-1,2-dihydroisoquinolin-4-yl)ethyl)-N,3,3-trimethylindoline-2-carboxamide], for which, where the note is “Hepatitis B virus, HepDE19, 168 h, HepDE19 cells, 7 day incubation, rcDNA measured by Quantigene 2.0 bDNA assay, top concentration 25 μM, read-out: DE-19bDNA EC50”, the EC50 was at least 25 µM.
